Experimental data taken from ChEMBL document CHEMBL1128584, “Prediction of drug binding affinities by comparative binding energy analysis” (J Med Chem, 1995).

Target: T1, Phospholipase A2, membrane associated (Homo sapiens) (UniProt P14555)
T1 sequence (whole entry): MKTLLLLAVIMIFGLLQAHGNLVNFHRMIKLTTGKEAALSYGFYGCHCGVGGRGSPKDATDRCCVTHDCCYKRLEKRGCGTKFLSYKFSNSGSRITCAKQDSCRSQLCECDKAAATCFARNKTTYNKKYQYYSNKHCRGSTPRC
Assay: Inhibitory activity against human synovial fluid phospholipase A2 (HSF-PLA2)
Set-up: concentration or dose not given beside the values
Settings: concentration not given here

SMILES | inhibition [%]
CCCCCCCCCCCC(=O)NC(CCCCCC)COP(=O)(O)OCC(N)C(=O)O (stereo not given) | 31
CCCCCCCCCCS(=O)(=O)NC(CCCCCC)COP(=O)(O)OCCO (stereo in doubt; form 2) | 44
CCCCCCCCCCS(=O)(=O)NC(CCCCCC)COP(=O)(O)OCCOCc1ccccc1 (stereo in doubt; form 2) | 36
CCCCCCCCCCS(=O)(=O)NC(CCCCCC)COS(=O)(=O)CCCOCc1ccccc1 (stereo not given) | 28
CCCCCCCCCCS(=O)(=O)NC(CCCCCC)COP(=O)(O)OCCOCc1ccccc1 (stereo in doubt; form 1) | 12
CCCCCCCCCCS(=O)(=O)CC(CCCCCC)COP(=O)(O)OCCOCc1ccccc1 (stereo in doubt; form 1) | 29
CCCCCCCCCCCC(=O)NC(CCCCCC)COP(=O)(CCCC)OC (stereo not given) | 24
CCCCCCCCCCS(=O)(=O)N[C@H](CCCCCC)COP(=O)(O)OCCO | 40
CCCCCCCCOCC(COP(=O)(O)OCCN)OP(=O)(O)CCCCCCC (stereo not given) | 33
CCCCCCCCCCS(=O)(=O)N[C@H](CCCCCC)COP(=O)(O)OCCOCc1ccccc1 (stereo in doubt; form 1) | 45
CCCCCCCCCCS(=O)(=O)NC(CCc1ccccc1)COP(=O)(O)OCCOCc1ccccc1 (stereo not given) | 24
CCCCCCCCCCS(=O)(=O)NC(CCCCCC)COCC(F)(F)F (stereo not given) | 0
CCCCCCCCCCCC(=O)NC(CCCCCC)COP(=O)(O)OCCOCc1ccccc1 (stereo not given) | 6

Continued, values first:

inhibition [%] | SMILES
80 | CCCCCCCCCCCC(=O)NC(CCCCCC)COP(=O)(O)OCCCC (stereo not given)
9 | CCCCCCCCOCC(COP(=O)(O)OCC[N+](C)(C)C)OP(=O)(O)CCCCCCC (stereo not given)
0 | CCCCCCCCCCS(=O)(=O)NC(CCCCCC)COP(=O)(O)OCCCC (stereo not given)
46 | CCCCCCCCCCS(=O)(=O)N[C@H](CCCCCC)COP(=O)(O)OCCOCc1ccccc1 (stereo in doubt; form 2)
74 | CCCCCCCCCCS(=O)(=O)N[C@H](CCCCCC)COP(=O)(O)OCCOCc1ccccc1 (stereo in doubt; form 3)
79 | CCCCCCCCCCS(=O)(=O)CC(CCCCCC)COP(=O)(O)OCCOCc1ccccc1 (stereo in doubt; form 2)
30 | CCCCCCCCCCS(=O)(=O)NC(CCCCCC)COP(=O)(O)CCCC (stereo not given)
49 | CCCCCCCCCCS(=O)(=O)NC(CCCCCC)COP(=O)(O)OCCO (stereo in doubt; form 1)
4 | CCCCCCCCCCS(=O)(=O)NC(CCCCCC)COP(=O)(O)OCCN (stereo not given)
28 | CCCCCCCCCCC(=O)NC(CCCCCC)COP(=O)(O)OCCN (stereo not given)
45 | CCCCCCCCCCCC(=O)NC(CCCCCC)COP(=O)(O)CCCC (stereo not given)
61 | CCCCCCCCCCCC(=O)NC(CCCCCC)COP(=O)(O)OCCO (stereo not given)
